In paper PMC5190074, “BET inhibition as a new strategy for the treatment of gastric cancer” (Oncotarget, 2016):

Tests used:
Experiment in all cases: biochemical
Design in all cases: thermal shift assay (real-time PCR machine), melting temperature shift of recombinant bromodomains at 2 uM protein
BRD7 = biological target: T1, BRD7 (Homo sapiens, UniProt Q9NPI1)
T1 construct: bromodomain
Protocol: (§1) The recombinant bromodomains at 2 μM were mixed with 10 μM inhibitors. The assays and data evaluation for melting temperatures were performed using a Real-Time PCR Mx3005p machine (Stratagene) and the protocols previously described. Experiments profiling the final compound (PNZ5) were performed in quadruplicates. […] Since its discovery in our own labs, similar inhibitors have also been disclosed by researchers at Boehringer Ingelheim [reference: patent, WO 2014/154760 [31]]. The inhibitor contains two possible acetyl-lysine mimetic moieties. In order to obtain molecular insights on the interaction of the developed inhibitor, the crystal structure of the first bromodomain of BRD4 in complex with PNZ5 was solved at 1.85 Å (Figure 2C and Supplementary Table 4, 5FBX.pdb). The inhibitor, coordinating residues and water molecules were well defined by the electron density. The dimethylisoxazole moiety mimicked the acetyl lysine side chain and formed two canonical hydrogen-bond interactions with Asn140 and water mediated hydrogen-bond with Tyr 97 (Figure 2C). The common network of waters within the binding site was also conserved in the BRD4(1)-PNZ5 complex. The compound was further stabilized by lipophilic interactions with residues forming the binding site Leu92, Leu94, Ile146. The [compound left out] substituent was well accommodated next to the WPF shelf, as well as the N1-methyl substituent that formed hydrophobic interactions with Trp81. The carbonyl on the isoindolinone established a water-mediated hydrogen bond with Lys91.

BRD3(2) = biological target: T2, BRD3(2) (Homo sapiens, UniProt Q15059)
T2 construct: bromodomain 2
Protocol: as §1

BRD1 = biological target: T3, BRD1 (Homo sapiens, UniProt O95696)
T3 construct: bromodomain
Protocol: as §1

TAF1(1) = biological target: T4, TAF1(1) (Homo sapiens, UniProt P21675)
T4 construct: bromodomain 1
Protocol: as §1

SP140L = biological target: T5, SP140L (Homo sapiens, UniProt Q9H930)
T5 construct: bromodomain
Protocol: as §1

PB1(1) = biological target: T6, PB1(1) (Homo sapiens, UniProt Q86U86)
T6 construct: gene PBRM1; bromodomain 1
Protocol: as §1

SMARCA2 = biological target: T7, SMARCA2 (Homo sapiens, UniProt P51531)
T7 construct: bromodomain
Protocol: as §1

SP140 = biological target: T8, SP140 (Homo sapiens, UniProt Q13342)
T8 construct: bromodomain
Protocol: as §1

TAF1L(1) = biological target: T9, TAF1L(1) (Homo sapiens, UniProt Q8IZX4)
T9 construct: bromodomain 1
Protocol: as §1

BAZ1B = biological target: T10, BAZ1B (Homo sapiens, UniProt Q9UIG0)
T10 construct: bromodomain
Protocol: as §1

EP300 = biological target: T11, EP300 (Homo sapiens, UniProt Q09472)
T11 construct: bromodomain
Protocol: as §1

PHIP(2) = biological target: T12, PHIP(2) (Homo sapiens, UniProt Q8WWQ0)
T12 construct: bromodomain 2
Protocol: as §1

CECR2 = biological target: T13, CECR2 (Homo sapiens, UniProt Q9BXF3)
T13 construct: bromodomain
Protocol: as §1

BRD3(1) = biological target: T14, BRD3(1) (Homo sapiens, UniProt Q15059)
T14 construct: bromodomain 1
Protocol: as §1

BRD2(2) = biological target: T15, BRD2(2) (Homo sapiens, UniProt P25440)
T15 construct: bromodomain 2
Protocol: as §1

BRPF3 = biological target: T16, BRPF3 (Homo sapiens, UniProt Q9ULD4)
T16 construct: bromodomain
Protocol: as §1

TIF1-bromo = biological target: T17, TIF1-bromo (Homo sapiens, UniProt O15164)
T17 construct: gene TRIM24; bromodomain
Protocol: as §1

BRD4(2) = biological target: T18, BRD4(2) (Homo sapiens, UniProt O60885)
T18 construct: bromodomain 2
Protocol: as §1

BRDT(1) = biological target: T19, BRDT(1) (Homo sapiens, UniProt Q58F21)
T19 construct: bromodomain 1
Protocol: as §1

TAF1L(2) = biological target: T20, TAF1L(2) (Homo sapiens, UniProt Q8IZX4)
T20 construct: bromodomain 2
Protocol: as §1

T15 sequence (P25440 whole entry): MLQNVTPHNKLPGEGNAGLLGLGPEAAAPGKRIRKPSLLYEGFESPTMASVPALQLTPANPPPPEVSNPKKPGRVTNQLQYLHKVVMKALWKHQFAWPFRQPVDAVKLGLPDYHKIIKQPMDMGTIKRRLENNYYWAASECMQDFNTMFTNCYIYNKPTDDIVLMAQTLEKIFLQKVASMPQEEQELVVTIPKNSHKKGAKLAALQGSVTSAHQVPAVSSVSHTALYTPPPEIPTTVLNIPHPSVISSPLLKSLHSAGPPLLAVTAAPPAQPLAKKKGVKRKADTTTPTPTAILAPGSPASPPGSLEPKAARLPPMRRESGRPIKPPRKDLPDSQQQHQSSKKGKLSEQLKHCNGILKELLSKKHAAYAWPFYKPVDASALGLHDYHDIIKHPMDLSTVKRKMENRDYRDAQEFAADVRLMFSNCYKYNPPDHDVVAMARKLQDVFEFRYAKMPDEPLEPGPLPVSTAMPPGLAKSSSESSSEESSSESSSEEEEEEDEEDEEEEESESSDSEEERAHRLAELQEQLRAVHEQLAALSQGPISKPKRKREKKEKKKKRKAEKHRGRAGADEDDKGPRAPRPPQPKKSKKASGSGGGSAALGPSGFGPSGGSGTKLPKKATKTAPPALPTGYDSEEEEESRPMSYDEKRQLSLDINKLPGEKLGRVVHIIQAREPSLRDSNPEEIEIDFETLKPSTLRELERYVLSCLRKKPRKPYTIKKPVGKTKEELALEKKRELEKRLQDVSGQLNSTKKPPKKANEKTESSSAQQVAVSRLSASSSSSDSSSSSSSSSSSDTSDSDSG
T4 sequence (P21675 whole entry): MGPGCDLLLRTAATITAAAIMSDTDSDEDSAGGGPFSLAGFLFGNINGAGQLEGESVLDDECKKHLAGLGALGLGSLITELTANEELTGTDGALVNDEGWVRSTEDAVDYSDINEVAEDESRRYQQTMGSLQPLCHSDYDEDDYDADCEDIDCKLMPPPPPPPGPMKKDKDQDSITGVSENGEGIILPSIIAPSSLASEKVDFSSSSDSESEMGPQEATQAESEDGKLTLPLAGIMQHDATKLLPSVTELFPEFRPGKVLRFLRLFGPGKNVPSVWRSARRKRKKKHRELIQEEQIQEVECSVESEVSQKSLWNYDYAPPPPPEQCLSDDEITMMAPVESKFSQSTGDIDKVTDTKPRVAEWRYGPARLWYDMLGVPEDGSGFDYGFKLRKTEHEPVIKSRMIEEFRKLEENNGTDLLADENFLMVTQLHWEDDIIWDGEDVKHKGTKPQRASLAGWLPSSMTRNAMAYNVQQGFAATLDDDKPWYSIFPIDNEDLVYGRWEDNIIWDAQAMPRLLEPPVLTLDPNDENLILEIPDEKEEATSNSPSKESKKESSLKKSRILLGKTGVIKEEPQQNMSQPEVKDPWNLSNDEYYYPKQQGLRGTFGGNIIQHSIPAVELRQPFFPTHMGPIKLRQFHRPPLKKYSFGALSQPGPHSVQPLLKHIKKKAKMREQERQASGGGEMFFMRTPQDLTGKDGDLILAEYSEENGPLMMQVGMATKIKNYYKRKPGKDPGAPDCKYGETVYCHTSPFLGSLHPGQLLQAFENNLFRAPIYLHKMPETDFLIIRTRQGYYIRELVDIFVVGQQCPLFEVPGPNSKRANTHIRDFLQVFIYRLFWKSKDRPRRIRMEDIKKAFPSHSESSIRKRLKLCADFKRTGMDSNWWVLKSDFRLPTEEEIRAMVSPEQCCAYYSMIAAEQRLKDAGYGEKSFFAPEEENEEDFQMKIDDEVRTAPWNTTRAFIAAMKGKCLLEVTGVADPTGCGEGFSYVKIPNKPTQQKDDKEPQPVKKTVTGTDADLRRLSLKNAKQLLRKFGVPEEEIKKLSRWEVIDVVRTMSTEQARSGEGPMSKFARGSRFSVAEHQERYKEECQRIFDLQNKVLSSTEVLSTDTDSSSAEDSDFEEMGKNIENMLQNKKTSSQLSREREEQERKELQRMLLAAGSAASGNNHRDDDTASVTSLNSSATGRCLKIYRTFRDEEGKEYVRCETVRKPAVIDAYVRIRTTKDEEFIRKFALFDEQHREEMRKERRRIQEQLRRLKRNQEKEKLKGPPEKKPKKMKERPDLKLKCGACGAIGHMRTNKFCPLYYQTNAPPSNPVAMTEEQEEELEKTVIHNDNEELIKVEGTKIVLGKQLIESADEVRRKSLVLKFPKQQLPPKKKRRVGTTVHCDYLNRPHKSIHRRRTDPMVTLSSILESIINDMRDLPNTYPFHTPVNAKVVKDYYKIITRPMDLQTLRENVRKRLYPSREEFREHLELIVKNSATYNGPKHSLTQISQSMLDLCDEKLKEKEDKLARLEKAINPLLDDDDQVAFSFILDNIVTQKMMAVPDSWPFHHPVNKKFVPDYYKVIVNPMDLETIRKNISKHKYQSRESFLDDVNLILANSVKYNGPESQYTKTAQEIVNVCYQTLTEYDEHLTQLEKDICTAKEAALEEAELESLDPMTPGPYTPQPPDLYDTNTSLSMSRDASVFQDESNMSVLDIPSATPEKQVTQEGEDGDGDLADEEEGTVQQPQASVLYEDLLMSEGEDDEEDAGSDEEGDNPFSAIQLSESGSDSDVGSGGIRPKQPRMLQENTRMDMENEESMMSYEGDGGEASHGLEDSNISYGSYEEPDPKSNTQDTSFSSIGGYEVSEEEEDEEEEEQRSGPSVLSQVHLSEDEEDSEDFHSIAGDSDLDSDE
T17 sequence (O15164 whole entry): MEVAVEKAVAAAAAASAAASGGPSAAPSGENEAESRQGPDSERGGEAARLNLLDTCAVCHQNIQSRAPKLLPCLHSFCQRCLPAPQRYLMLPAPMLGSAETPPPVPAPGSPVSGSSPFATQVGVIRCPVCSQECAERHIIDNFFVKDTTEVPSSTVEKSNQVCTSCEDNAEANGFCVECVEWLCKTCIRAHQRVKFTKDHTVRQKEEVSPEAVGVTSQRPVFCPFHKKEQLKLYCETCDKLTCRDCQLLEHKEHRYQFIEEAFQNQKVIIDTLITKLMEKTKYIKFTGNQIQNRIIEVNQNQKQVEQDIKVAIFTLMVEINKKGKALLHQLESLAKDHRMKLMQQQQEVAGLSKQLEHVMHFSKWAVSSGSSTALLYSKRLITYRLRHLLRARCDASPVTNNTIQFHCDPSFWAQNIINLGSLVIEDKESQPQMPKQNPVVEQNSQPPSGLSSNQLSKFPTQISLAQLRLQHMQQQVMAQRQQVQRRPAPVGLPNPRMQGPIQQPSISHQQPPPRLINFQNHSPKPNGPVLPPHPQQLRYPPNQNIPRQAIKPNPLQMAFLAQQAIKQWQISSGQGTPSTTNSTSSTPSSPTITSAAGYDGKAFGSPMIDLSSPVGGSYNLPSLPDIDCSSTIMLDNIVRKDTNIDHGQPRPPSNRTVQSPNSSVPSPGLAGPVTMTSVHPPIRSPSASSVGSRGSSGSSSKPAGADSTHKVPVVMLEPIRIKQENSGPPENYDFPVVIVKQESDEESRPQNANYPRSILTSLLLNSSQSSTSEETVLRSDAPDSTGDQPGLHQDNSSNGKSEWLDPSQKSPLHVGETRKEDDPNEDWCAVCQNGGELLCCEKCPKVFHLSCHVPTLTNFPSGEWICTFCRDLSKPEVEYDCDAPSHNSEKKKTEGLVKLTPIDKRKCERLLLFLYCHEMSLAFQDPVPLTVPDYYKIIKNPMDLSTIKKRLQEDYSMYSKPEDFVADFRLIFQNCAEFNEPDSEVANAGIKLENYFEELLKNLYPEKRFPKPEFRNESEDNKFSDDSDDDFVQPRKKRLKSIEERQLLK
T16 sequence (Q9ULD4 whole entry): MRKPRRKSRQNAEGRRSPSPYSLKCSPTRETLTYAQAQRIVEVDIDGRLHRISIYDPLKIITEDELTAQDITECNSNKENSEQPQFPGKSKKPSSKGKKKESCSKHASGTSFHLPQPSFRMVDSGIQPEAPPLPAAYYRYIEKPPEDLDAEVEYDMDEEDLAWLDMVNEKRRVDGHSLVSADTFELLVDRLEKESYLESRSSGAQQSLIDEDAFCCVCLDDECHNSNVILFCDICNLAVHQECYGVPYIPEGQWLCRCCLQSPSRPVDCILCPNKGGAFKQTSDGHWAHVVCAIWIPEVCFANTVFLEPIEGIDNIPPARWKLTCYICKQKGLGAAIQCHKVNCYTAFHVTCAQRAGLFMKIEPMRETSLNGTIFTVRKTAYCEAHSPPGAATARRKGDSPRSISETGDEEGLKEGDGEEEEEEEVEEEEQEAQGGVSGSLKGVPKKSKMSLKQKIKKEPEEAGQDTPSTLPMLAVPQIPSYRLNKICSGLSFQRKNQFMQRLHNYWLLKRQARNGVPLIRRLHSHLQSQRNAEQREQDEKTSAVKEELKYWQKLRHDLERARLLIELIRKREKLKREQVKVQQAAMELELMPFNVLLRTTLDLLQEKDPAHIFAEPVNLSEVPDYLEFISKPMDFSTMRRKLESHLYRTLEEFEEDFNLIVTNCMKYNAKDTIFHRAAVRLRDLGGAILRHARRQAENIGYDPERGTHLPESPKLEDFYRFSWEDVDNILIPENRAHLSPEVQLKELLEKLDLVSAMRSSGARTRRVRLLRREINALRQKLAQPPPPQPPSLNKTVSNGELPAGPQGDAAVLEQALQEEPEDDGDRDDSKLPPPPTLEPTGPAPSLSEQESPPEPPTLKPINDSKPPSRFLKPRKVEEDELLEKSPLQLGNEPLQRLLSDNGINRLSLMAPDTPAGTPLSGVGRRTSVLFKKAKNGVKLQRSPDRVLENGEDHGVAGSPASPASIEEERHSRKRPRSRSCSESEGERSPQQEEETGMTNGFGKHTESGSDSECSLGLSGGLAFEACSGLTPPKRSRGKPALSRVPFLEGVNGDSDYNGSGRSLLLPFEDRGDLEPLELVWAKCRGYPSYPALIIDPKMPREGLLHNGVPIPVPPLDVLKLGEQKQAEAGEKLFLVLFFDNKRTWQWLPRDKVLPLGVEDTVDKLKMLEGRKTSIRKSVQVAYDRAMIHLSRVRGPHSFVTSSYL

ΔTm at 10 µM (BRD7): 0.37 °C | ΔTm at 10 µM (BRD3(2)): 9.54 °C | ΔTm at 10 µM (BRD1): 1.03 °C | ΔTm at 10 µM (TAF1(1)): 0.09 °C | ΔTm at 10 µM (SP140L): 1.05 °C | ΔTm at 10 µM (PB1(1)): 0.79 °C | ΔTm at 10 µM (SMARCA2): -0.18 °C | ΔTm at 10 µM (SP140): 0.87 °C | ΔTm at 10 µM (TAF1L(1)): 0.31 °C | ΔTm at 10 µM (BAZ1B): 1.67 °C | ΔTm at 10 µM (EP300): 2.49 °C | ΔTm at 10 µM (PHIP(2)): 0.22 °C | ΔTm at 10 µM (CECR2): 0.19 °C | ΔTm at 10 µM (BRD3(1)): 9.79 °C | ΔTm at 10 µM (BRD2(2)): 8.13 °C | ΔTm at 10 µM (BRPF3): 0.95 °C | ΔTm at 10 µM (TIF1-bromo): 0.86 °C | ΔTm at 10 µM (BRD4(2)): 7.04 °C | ΔTm at 10 µM (BRDT(1)): 6.19 °C | ΔTm at 10 µM (TAF1L(2)): 0.51 °C
SMILES: Cc1noc(C)c1-c1ccc2c(c1)[C@H](c1ccccc1)N(C)C2=O [PNZ5]
